Test results reported in patent US20100093738A1, “Fungicidal Compounds and Fungicidal Compositions” (BASF SE, priority 2006, published 2010).

How the values were obtained:
Botrytis cinerea = experiment: Activity against the gray mold pathogen Botrytis cinerea in the microtiter test; format: cell-based; details: 168 h, single active compound, day 7, read-out: Observed activity (%); for inhibition at 1 ppm: conc. 1 ppm, efficacy in % of untreated control
Pyricularia oryzae = experiment: microbe, parasite or virus in culture; format: cell-based; details: for inhibition at 0.25 ppm: Pyricularia oryzae, 168 h, read-out: Observed activity (%)

SMILES: COC(=O)N(OC)c1ccccc1COc1ccn(-c2ccc(Cl)cc2)n1 [II.1, pyraclostrobin]
- inhibition at 1 ppm (Botrytis cinerea): 19%

SMILES: Cc1cc(C2CC2)nc(Nc2ccccc2)n1 [II.2, cyprodinil]
- inhibition at 0.063 ppm (Botrytis cinerea; conc. 0.063 ppm): 72%
- inhibition at 0.25 ppm (Pyricularia oryzae): 63%

SMILES: O=C(Nc1ccccc1-c1ccc(Cl)cc1)c1cccnc1Cl [II.3, boscalid]
- inhibition at 1 ppm (Botrytis cinerea): 58%

SMILES: CC(C1CC1)C(O)(Cn1cncn1)c1ccc(Cl)cc1 (stereo not drawn) [II.4, cyproconazol]
- inhibition at 0.25 ppm (Pyricularia oryzae): 0%

SMILES: Fc1ccc([C@]2(Cn3cncn3)O[C@H]2c2ccccc2Cl)cc1 [II.5, epoxiconazol]
- Observed activity (%) (Pyricularia oryzae; single active compound, conc. 0.25 ppm, day 7): 4%
